Data: patent US20140178461A1, “COMPOUNDS AND COMPOSITIONS FOR USE IN THE TREATMENT AND PREVENTION OF LUNG AND BRAIN CANCER AND PRECANCEROUS CONDITIONS THEREOF” (priority 2012, published 2014)
Read-outs that look alike come from different tables or passages of the source. Values belong to the molecule of their own block, whether it stands above or below them.

Tests used:
[1] = system: A549 human non-small cell lung cancer cells; experiment: Subcutaneous A549 xenograft in NOD SCID mice (efficacy of PTI 93); type: in vivo, mouse; conditions: end of study, factoring in the 0 time value
Protocol: A549 human non-small cell lung cancer cells (1.5×10^5) were injected subcutaneously in the left and right flanks of 5-6-week-old female NOD SCID mice (Taconic Farms, Germantown, N.Y.). When the average tumor volume reached 100 mm^3, mice were treated by oral gavage of 10 or 15 mg/kg/day PTI 93 or vehicle (corn oil) for 2 weeks, when they were sacrificed and the tumors were harvested.

[2] = system: heart tissue; experiment: Cardiotoxicity, histology of heart tissue sections from treated mice; conditions: mice treated for about 1.5 months
[3] = system: Salmonella Typhimurium (TA98 and TA100); experiment: Genotoxicity, reverse mutations in Salmonella with and without rat liver S9; conditions: strains TA98 and TA100, presence and absence of rat liver S9
[4] = Pharmacokinetics study of PTI 93 in mice (plasma levels); conditions: single i.p. dose of 100 mg/kg PTI 93, mice
[5] = system: U87 glioblastoma cells; experiment: Apoptosis, Annexin V-FITC/PI staining by FACS; type: cell-based, human
[6] = parameters: AUC in plasma: unit not given beside the values; conditions: mouse, in vivo, inhaled or intranasal
[7] = system: U87 cells; experiment: Inhibition of glioblastoma cell line U87, 24-h growth inhibitory concentration; type: cell-based, human; conditions: 24-hour growth inhibition
[8] = in vivo; conditions: mouse, ip, 58 mg/kg
[9] = system: A549 human non-small lung cancer cells; experiment: Orthotopic A549-GFP lung tumor model in Ncr nude mice (efficacy of phospho-ibuprofen amide 1); type: in vivo; conditions: 200 mg/kg once a week for 8 weeks; compound 1 liposomal; versus control
[10] = Biodistribution of liposomal phospho-ibuprofen amide 1 in mice after i.v. administration; type: in vivo; conditions: single 200 mg/kg i.v. dose, 1 h

AUC in plasma ([6]; BALB/c nude): 66.9 | AUC in lung [6]: 18.9 nmol·h/g
SMILES: CSc1ccc(/C=C2/C(C)=C(CC(=O)O)c3cc(F)ccc32)cc1 [Sulindac sulfide 131, sulindac sulfide]

AUC in plasma ([6]; BALB/c nude): 142.4 | Cmax ([6]; BALB/c nude): 10.4 µM | Tmax in lung ([6]; BALB/c nude): 8 h | Tmax in plasma ([6]; BALB/c nude): 8 h | AUC in lung [6]: 57.5 nmol·h/g | Cmax in lung [6]: 4.6 nmol/g
SMILES: CC1=C(CC(=O)O)c2cc(F)ccc2/C1=C\c1ccc(S(C)(=O)=O)cc1 [Sulindac sulfone 132, sulindac sulfone]

IC50 [7]: ≥ 1 mM | AUC in lung [6]: 30.1 nmol·h/g | AUC in plasma [6]: 49.5 | Tmax in lung [6]: 0 h | Tmax in plasma [6]: 0 h
SMILES: CC1=C(CC(=O)O)c2cc(F)ccc2/C1=C\c1ccc([S+](C)[O-])cc1 (stereo not shown) [Sulindac, sulindac]

AUC(0-t) [8]: 500 µM·h | Cmax [8]: 127 µM
SMILES: COc1ccc2c(c1)c(CC(=O)O)c(C)n2C(=O)c1ccc(Cl)cc1 [indomethacin 127, indomethacin]

The next lines start with the molecule.

SMILES: CCOP(=O)(OCC)OCCc1ccc(OC(=O)Cc2c(C)n(C(=O)c3ccc(Cl)cc3)c3ccc(OC)cc23)cc1 [PTI 93, [1-(4-Chloro-benzoyl)-5-methoxy-2-methyl-1H-indol-3-yl]-acetic acid 4-[2-(diethoxy-phosphoryloxy)-ethyl]-phenyl ester]
reduction of tumor volume ([1]; 10 mg/kg/day oral gavage for 2 weeks): 85% | reduction of tumor volume ([1]; 15 mg/kg/day oral gavage for 2 weeks): 96% | cardiotoxicity (histology, treated versus healthy control mice) [2]: no differences | genotoxicity (reverse mutations) [3]: no genotoxicity | time of maximum plasma concentration of intact PTI [4]: 2 h | plasma level of intact PTI 4 hours post administration ([4]; 4 hours): undetectable

SMILES: CCCC(CCC)C(=O)Oc1ccc(COP(=O)(OCC)OCC)cc1 [PV 116, Phosphovalproic Acid]
fold-increase of annexinV (+) cells [5]: 3.0 fold

SMILES: CCOP(=O)(OCC)OCCCCNC(=O)C(C)c1ccc(CC(C)C)cc1 (stereo not shown) [phospho-ibuprofen amide 1, Phosphoric acid diethyl ester 4-[2-(4-isobutyl-phenyl)-propionylamino]-butyl ester]
reduction based on lung tumor weight (lung weight) [9]: 80% | reduction of lung cancer based on fluorescence [9]: 95% | biodistribution (drug concentration in blood and major organs) [10]: preferentially accumulated in lungs
